# Laboratory results published in ChEMBL document CHEMBL4334464, “From Phenylthiazoles to Phenylpyrazoles: Broadening the Antibacterial Spectrum toward Carbapenem-Resistant Bacteria” (J Med Chem, 2019).
# The source made the active and inactive calls. The calls are words filed in the database; no cut-off is given here.
# Assays:
# [1] = system: Staphylococcus aureus; experiment: Antibacterial activity against methicillin-resistant Staphylococcus aureus NRS384-USA300 clinical isolates after 18 to 20 hrs in aerobic condition by CLSI protocol based broth microdilution assay; format: functional
# [2] = system: Escherichia coli; experiment: Antimicrobial activity against Escherichia coli JW55031 harboring deltatolC mutant after 18 to 20 hrs in aerobic condition by CLSI protocol based broth microdilution assay; format: functional
# [3] = system: Staphylococcus aureus; experiment: Antibacterial activity against Methicillin-sensitive Staphylococcus aureus ATCC 6538 clinical isolates after 18 to 20 hrs in aerobic condition by CLSI protocol based broth microdilution assay; format: functional
# [4] = system: Staphylococcus aureus; experiment: Antibacterial activity against Methicillin-sensitive Staphylococcus aureus NRS107 clinical isolates after 18 to 20 hrs in aerobic condition by CLSI protocol based broth microdilution assay; format: functional
# [5] = system: Staphylococcus aureus; experiment: Antibacterial activity against linezolid-resistant/Methicillin-resistant Staphylococcus aureus NRS119 clinical isolates after 18 to 20 hrs in aerobic condition by CLSI protocol based broth microdilution assay; format: functional
# [6] = system: Staphylococcus aureus; experiment: Antibacterial activity against Methicillin-resistant Staphylococcus aureus NRS385-USA500 clinical isolates after 18 to 20 hrs in aerobic condition by CLSI protocol based broth microdilution assay; format: functional
# [7] = system: Staphylococcus aureus; experiment: Antibacterial activity against Methicillin-resistant Staphylococcus aureus USA700-NRS386 clinical isolates after 18 to 20 hrs in aerobic condition by CLSI protocol based broth microdilution assay; format: functional
# [8] = system: Staphylococcus aureus; experiment: Bactericidal activity against methicillin-resistant Staphylococcus aureus NRS123-USA400 clinical isolates at 5 times MIC incubated over 24 hrs followed by replating on tryptic soy agar plate and further incubated for 18 to 20 hrs by time kill assay; format: functional, organism-based
# [9] = system: Staphylococcus epidermidis; experiment: Antibacterial activity against Staphylococcus epidermidis NRS101 after 18 to 20 hrs in aerobic condition by CLSI-based broth microdilution assay; format: functional
# [10] = system: Streptococcus pneumoniae; experiment: Antibacterial activity against cephalosporin-resistant Streptococcus pneumoniae ATCC 51916 clinical isolates after 18 to 20 hrs by CLSI-based broth microdilution assay; format: functional
# [11] = system: Acinetobacter baumannii; experiment: Antibacterial activity against Acinetobacter baumannii ATCC 19606 clinical isolates after 18 to 20 hrs in aerobic condition by CLSI-based broth microdilution assay; format: functional; conditions: ATCC 19606 = CIP 70.34 = JCM 6841
# [12] = system: Acinetobacter baumannii; experiment: Antibacterial activity against Acinetobacter baumannii ATCC BAA 1141 clinical isolates after 18 to 20 hrs in aerobic condition by CLSI-based broth microdilution assay; format: functional
# [13] = system: Acinetobacter baumannii; experiment: Antibacterial activity against Acinetobacter baumannii NR 17785 clinical isolates after 18 to 20 hrs in aerobic condition by CLSI-based broth microdilution assay; format: functional
# [14] = system: Escherichia coli; experiment: Antibacterial activity against Escherichia coli BW25113 clinical isolates after 18 to 20 hrs in aerobic condition by CLSI-based broth microdilution assay; format: functional
# [15] = system: Escherichia coli; experiment: Antibacterial activity against Escherichia coli ATCC 25922 clinical isolates after 18 to 20 hrs in aerobic condition by CLSI-based broth microdilution assay; format: functional
# [16] = system: Escherichia coli; experiment: Antibacterial activity against Escherichia coli ATCC 35150 clinical isolates after 18 to 20 hrs in aerobic condition by CLSI-based broth microdilution assay; format: functional
# [17] = Antibacterial activity against Enterobacter cloacae subsp. cloacae ATCC BAA-1143 clinical isolates after 18 to 20 hrs in aerobic condition by CLSI-based broth microdilution assay; format: functional
# [18] = system: Salmonella enterica; experiment: Antibacterial activity against Salmonella enterica NR-170 clinical isolates after 18 to 20 hrs in aerobic condition by CLSI-based broth microdilution assay; format: functional
# [19] = system: Salmonella enteritidis; experiment: Antibacterial activity against Salmonella enteritidis ATCC 13076 clinical isolates after 18 to 20 hrs in aerobic condition by CLSI-based broth microdilution assay; format: functional, Salmonella enterica subsp. enterica serovar Enteritidis; conditions: Salmonella enterica
# [20] = system: Salmonella typhimurium; experiment: Antibacterial activity against Salmonella typhimurium ATCC 700720 after 18 to 20 hrs in aerobic condition by CLSI-based broth microdilution assay; format: functional, Salmonella enterica subsp. enterica serovar Typhimurium; conditions: Salmonella enterica
# [21] = system: Klebsiella pneumoniae; experiment: Antibacterial activity against carbapenem-resistant Klebsiella pneumoniae ATCC BAA-1705 clinical isolates after 18 to 20 hrs in aerobic condition by CLSI-based broth microdilution assay; format: functional
# [22] = system: Klebsiella pneumoniae; experiment: Antibacterial activity against carbapenem-resistant Klebsiella pneumoniae ATCC BAA-2146 clinical isolates after 18 to 20 hrs in aerobic condition by CLSI-based broth microdilution assay; format: functional
# [23] = system: Escherichia coli; experiment: Inhibition of 6His tagged Escherichia coli UPPP expressed in Escherichia coli C41(DE3) cells preincubated for 15 mins followed by FPP substrate addition and measured after 20 mins by malachite green reagent based assay
# [24] = system: Staphylococcus epidermidis; experiment: Ratio of MBC to MIC for Staphylococcus epidermidis NRS101 clinical isolates; format: functional
# [25] = system: Enterococcus faecium; experiment: Ratio of MBC to MIC for vancomycin-resistant Enterococcus faecium ATCC 700221 clinical isolates; format: functional
# [26] = system: Listeria monocytogenes; experiment: Ratio of MBC to MIC for Listeria monocytogenes ATCC 19111 clinical isolates; format: functional
# [27] = system: Streptococcus pneumoniae; experiment: Ratio of MBC to MIC for cephalosporin-resistant Streptococcus pneumoniae ATCC 51916 clinical isolates; format: functional
# [28] = system: Acinetobacter baumannii; experiment: Ratio of MBC to MIC for Acinetobacter baumannii NR 17785 clinical isolates; format: functional
# [29] = system: Acinetobacter baumannii; experiment: Ratio of MBC to MIC for Acinetobacter baumannii NR 17786 clinical isolates; format: functional
# [30] = system: Escherichia coli; experiment: Ratio of MBC to MIC for Escherichia coli BW25113 clinical isolates; format: functional
# [31] = system: Escherichia coli; experiment: Ratio of MBC to MIC for Escherichia coli ATCC 35150 clinical isolates; format: functional
# [32] = system: Escherichia coli; experiment: Ratio of MBC to MIC for Escherichia coli ATCC 1411 clinical isolates; format: functional
# [33] = system: Enterobacter cloacae subsp. cloacae; experiment: Ratio of MBC to MIC for Enterobacter cloacae subsp. cloacae ATCC BAA-1143 clinical isolates; format: functional
# [34] = system: Klebsiella pneumoniae; experiment: Ratio of MBC to MIC for Klebsiella pneumoniae BAA-1706 after 18 to 20 hrs in aerobic condition by CLSI-based broth microdilution assay; format: functional
# [35] = system: Klebsiella pneumoniae; experiment: Ratio of MBC to MIC for Klebsiella pneumoniae BAA-1144 clinical isolates; format: functional
# [36] = system: Salmonella enterica; experiment: Ratio of MBC to MIC for Salmonella enterica NR-170 clinical isolates; format: functional
# [37] = system: Salmonella enteritidis; experiment: Ratio of MBC to MIC for Salmonella enteritidis ATCC 13076 clinical isolates; format: functional, Salmonella enterica subsp. enterica serovar Enteritidis
# [38] = system: Salmonella typhimurium; experiment: Ratio of MBC to MIC for Salmonella typhimurium ATCC 700720 clinical isolates; format: functional, Salmonella enterica subsp. enterica serovar Typhimurium
# [39] = system: Shigella flexneri; experiment: Ratio of MBC to MIC for Shigella flexneri ATCC 9199 clinical isolates; format: functional
# [40] = system: Pseudomonas aeruginosa; experiment: Ratio of MBC to MIC for Pseudomonas aeruginosa ATCC 9027 clinical isolates; format: functional
# [41] = system: Pseudomonas aeruginosa; experiment: Ratio of MBC to MIC for Pseudomonas aeruginosa ATCC 25619 clinical isolates; format: functional
# [42] = system: Pseudomonas aeruginosa; experiment: Ratio of MBC to MIC for Pseudomonas aeruginosa ATCC 15442 clinical isolates; format: functional
# [43] = system: Escherichia coli; experiment: microbe, parasite or virus in culture; conditions: ATCC 1411
# Description: Antibacterial activity against Escherichia coli ATCC 1411 clinical isolates after 18 to 20 hrs in aerobic condition by CLSI-based broth microdilution assay
# [44] = system: Pseudomonas aeruginosa; experiment: microbe, parasite or virus in culture; conditions: ATCC 25619
# Description: Antibacterial activity against Pseudomonas aeruginosa ATCC 25619 clinical isolates after 18 to 20 hrs in aerobic condition by CLSI-based broth microdilution assay
smiles,measurement,setting,value
C/C(=N\NC1=NCCN1)c1cnn(-c2ccc(C#CC3CCCC3)cc2)c1C,MIC,[1],4 µg/mL
same,MIC,[2],4 µg/mL
same,MIC,[3],1 µg/mL
same,MIC,[4],2 µg/mL
same,MIC,[5],4 µg/mL
same,MIC,[6],4 µg/mL
same,MIC,[7],4 µg/mL
same,Activity,[8],Active
same,MIC,[9],2 µg/mL
same,MIC,[10],8 µg/mL
same,MIC,[11],16 µg/mL
same,MIC,[12],16 µg/mL
same,MIC,[13],8 µg/mL
same,MIC,[14],64 µg/mL
same,MIC,[15],32 µg/mL
same,MIC,[16],16 µg/mL
same,MIC,[17],32 µg/mL
same,MIC,[18],32 µg/mL
same,MIC,[19],32 µg/mL
same,MIC,[20],64 µg/mL
same,MIC,[21],64 µg/mL
same,MIC,[22],64 µg/mL
same,inhibition,[23],inactive
same,Ratio,[24],<3
same,Ratio,[25],<3
same,Ratio,[26],<3
same,Ratio,[27],<3
same,Ratio,[28],>=1
same,Ratio,[29],>=1
same,Ratio,[30],>=1
same,Ratio,[31],>=1
same,Ratio,[32],>=1
same,Ratio,[33],> 1
same,Ratio,[34],>=1
same,Ratio,[35],>=1
same,Ratio,[36],>=1
same,Ratio,[37],>=1
same,Ratio,[38],>=1
same,Ratio,[39],>=1
same,Ratio,[40],>=1
same,Ratio,[41],>=1
same,Ratio,[42],>=1
same,MIC,[43],64 µg/mL
same,MIC,[44],64 µg/mL
C/C(=N\NC(=N)N)c1cnn(-c2ccc(C#CC3CCCCC3)cc2)c1C,MIC,[1],2 µg/mL
same,MIC,[2],2 µg/mL
same,MIC,[3],2 µg/mL
same,MIC,[4],2 µg/mL
same,MIC,[5],2 µg/mL
same,MIC,[6],2 µg/mL
same,MIC,[7],2 µg/mL
same,Activity,[8],Active
same,MIC,[9],2 µg/mL
same,MIC,[10],2 µg/mL
same,MIC,[11],4 µg/mL
same,MIC,[12],4 µg/mL
same,MIC,[13],8 µg/mL
same,MIC,[14],4 µg/mL
same,MIC,[15],4 µg/mL
same,MIC,[16],4 µg/mL
same,MIC,[17],8 µg/mL
same,MIC,[18],8 µg/mL
same,MIC,[19],16 µg/mL
same,MIC,[20],8 µg/mL
same,MIC,[21],8 µg/mL
same,MIC,[22],8 µg/mL
same,inhibition,[23],inactive
same,Ratio,[24],<3
same,Ratio,[25],<3
same,Ratio,[26],<3
same,Ratio,[27],<3
same,Ratio,[28],>=1
same,Ratio,[29],>=1
same,Ratio,[30],>=1
same,Ratio,[31],>=1
same,Ratio,[32],>=1
same,Ratio,[33],> 1
same,Ratio,[34],>=1
same,Ratio,[35],>=1
same,Ratio,[36],>=1
same,Ratio,[37],>=1
same,Ratio,[38],>=1
same,Ratio,[39],>=1
same,Ratio,[40],>=1
same,Ratio,[41],>=1
same,Ratio,[42],>=1
same,MIC,[43],8 µg/mL
same,MIC,[44],64 µg/mL
